From PMC9727179, “Acorane sesquiterpenes from the deep-sea derived Penicillium bilaiae fungus with anti-neuroinflammatory effects” (Frontiers in Chemistry, 2022)
“Also recorded” adds a separate entry of the source. Like-named read-outs stand apart in the source and are kept apart here.

What was measured:
BV-2 microglial cells = assay: Cell viability / cytotoxicity, MTT method; type: cell-based, murine; details: BV-2 cells
Experimental: (§1) Murine BV-2 microglial cells were obtained from the Cell Culture Center of Institute of Basic Medical Sciences, Chinese Academy of Medical Sciences, and the cells were cultured in Dulbecco’s modified Eagle’s medium (Gibco) together with 10% (v/v) fetal bovine serum (HyClone) within a 5% CO2 incubator at 37°C. The MTT method was utilized to detect the cytotoxicity of the compound to read the absorbance at 570 nm using a microplate spectrophotometer (Thermo Scientifics, United States).

[1] = tested on: NO production in LPS-induced BV-2 cells; assay: Inhibition of NO production in LPS-induced BV-2 cells (Griess method); type: cell-based, murine; details: for IC50: LPS (1 μg/ml)-induced BV-2 cells, 24 h, read-out: IC50, inhibitory effect against NO production
Experimental: In the presence or absence of LPS (1 μg/ml), murine BV-2 microglial cells were treated with compounds with different concentrations for 24 h. The same volume of Griess reagent was added to the supernatant of culture media. The Griess method was used to determine the NO levels under the absorbance at 540 nm measured using a microplate spectrophotometer (Thermo Scientifics, United States). Based on the established calibration curve of standard sodium nitrite solutions, the content of nitrite was calculated.

[2] = Cell viability / cytotoxicity, MTT method; type: cell-based, murine; details: mouse, BV-2 microglial cells, BV-2 cells
Experimental: as §1

NF-κB p65 = assay: Nuclear translocation of NF-κB p65 in LPS-stimulated BV-2 cells (immunofluorescence and Western blot); type: cell-based, murine; details: LPS (1 μg/ml)-stimulated BV-2 cells, 2 μM, 3 h, immunofluorescence and WB
Experimental: (§2) In 12-well plates, BV-2 cells were seeded to incubate with LPS (1 μg/ml) for 1 h. Each compound was incubated with BV-2 cells for 16 h. Phenylmethylsulfonyl fluoride-protease inhibitor cocktail as the cell extraction buffer was used to lyse cells. Nuclear and cytosolic extraction kits were applied for the collection of the cytosolic and nuclear extracts. Upon SDS-PAGE, proteins were purified and transferred to PVDF membranes (Millipore). After treatment with 5% (W/V) skim milk in TBST (Tris-buffered saline with 0.1% Tween 20) for 1 h, the membranes were maintained at 4°C overnight. The membrane was washed and then incubated with a secondary antibody at 20°C for 1 h. The target proteins were visualized under a chemiluminescence (ECL) detection system, and the relative optical densities were analyzed by Image Master™ 2D Elite software.
Prior to LPS induction, BV-2 cells were pretreated by the compound (2 μM) in DMSO. Cells were seeded in glass coverslips, which were then treated with cold 4% paraformaldehyde and 0.2% Triton X-100 (in PBS). […] Images were detected using a fluorescence microscope (OLYMPUS IX83).
FIGURE 8 Effect of analog 18 on the nuclear translocation of NF-κB p65 in LPS-stimulated BV-2 cells. […] (B) BV-2 cells were stimulated with LPS (1 μg/ml) in the absence or presence of 18 (2 μM) for 3 h, and NF-kB p65 levels in the nucleus and cytoplasm were determined by Western blot. […]

COX-2 [3] = assay: Western blot of COX-2 protein expression in LPS-induced BV-2 cells; type: cell-based, murine; details: LPS (1 μg/mL)-induced BV-2 cells, different concentrations, 24 h
Experimental: as §2
(§3) FIGURE 6 Analog 18 inhibited the expression of iNOS and COX-2 in LPS-induced BV-2 cells. Cells were stimulated by 1 μg/mL LPS with or without 18 for 24 h. (A) The protein expressions o f iNOS treated by different concentrations of 18 were determined by Western blot assay, (B) the expressions of COX-2 t reated by different concentrations of 18 were determined by Western blot assay. […]

iNOS [4] = assay: iNOS mRNA level; type: cell-based
COX-2 [5] = assay: COX-2 mRNA level; type: cell-based
[6] = tested on: phosphorylation of JNK, ERK and p38 (MAPK signaling pathway); assay: MAPK phosphorylation in LPS-stimulated BV-2 cells; type: cell-based, murine; details: LPS-stimulated BV-2 microglial cells
Experimental: as §2

iNOS [7] = assay: Western blot of iNOS protein expression in LPS-induced BV-2 cells; type: cell-based, murine; details: LPS (1 μg/mL)-induced BV-2 cells, different concentrations, 24 h
Experimental: as §2, §3

Compound | IC50 ([1]; Mus musculus, BV-2, 24 h) [µM] | CC50 [2] [µM] | further results
C=C(C)C1C(O)CC(C)C12CC=C(C)C(O)C2 (centres unmarked) [Compound 6, Bilaiaeacorenol F] |  |  | CC50 (BV-2 microglial cells): > 100 µM; IC50 [1]: > 10 µM
C=C(C)C1C(OC(C)=O)CC(C)C12CC(O)C(C)=CC2O (centres unmarked) [Compound 9, Bilaiaeacorenol I] |  | > 100 | IC50 ([1]; Mus musculus): 3.5 ± 0.1 µM
C=C(C)C1C(O)CC(C)C12CC(=O)C(C)C(O)C2 (centres unmarked) [Compound 17, Bilaiaeacorenol Q] | > 10 | > 100 | 
C=C(C)C1C(O)CC(C)C12CCC(CO)C(O)C2 (centres unmarked) [Compound 12, Bilaiaeacorenol L] | > 10 | > 100 | 
adametacorenol A [Compound 19] |  |  | CC50 (BV-2 microglial cells): > 100 µM; IC50 [1]: > 10 µM
C=C(C)C1C(O)CC(C)C12CCC(CO)C(O)C2 (centres unmarked) [Compound 16, Bilaiaeacorenol P] |  |  | CC50 (BV-2 microglial cells): > 100 µM; IC50 [1]: 7.5 ± 0.2 µM
CC1=CCC2(CC1O)C(C)CC(O)C2C(C)(O)CO (centres unmarked) [Compound 3, Bilaiaeacorenol C] | 5.3 ± 1.1 | > 100 | 
[H]/N=C(/NC)NCCC[C@H](N)C(=O)O [L-NMMA, NG-monomethyl-L-arginine, reference compound] | 6.8 ± 4.2 | > 100 | 
adametacorenol B [Compound 20] |  |  | CC50 (BV-2 microglial cells): > 100 µM; IC50 [1]: > 10 µM
C=C(C)C1C(O)CC(C)C12CCC(CO)C(O)C2 (centres unmarked) [Compound 14, Bilaiaeacorenol N] |  |  | CC50 (BV-2 microglial cells): > 100 µM; IC50 ([1]; Mus musculus): > 10 µM
C=C(CO)C1C(OC(C)=O)CC(C)C12CC=C(C)C(O)C2 (centres unmarked) [Compound 10, Bilaiaeacorenol J] | > 10 | > 100 | 
C=C(C)C1C(OC(C)=O)CC(C)C12CC(O)C(C)(O)C(O)C2 (centres unmarked) [Compound 15, Bilaiaeacorenol O] |  | > 100 | IC50 ([1]; Mus musculus): 3.7 ± 0.1 µM
C=C(C)C1C(O)CC(C)C12CC=C(CO)C(O)C2 (centres unmarked) [Compound 7, Bilaiaeacorenol G] | > 10 | > 100 | 

Second part, led by results:

IC50 ([1]; Mus musculus, BV-2, 24 h) [µM] | Compound | CC50 [2] [µM] | further results
> 10 | CC1=CCC23CC1OC(C)(CO)C2C(O)CC3C (centres unmarked) [Compound 1, Bilaiaeacorenol A] | > 100 | 
6.1 ± 2.3 | CC1CC(O)C2C(C)(O)CC3CC12CC=C3CO (centres unmarked) [Compound 2, Bilaiaeacorenol B] | > 100 | melting point: 108 to 110 °C
7.6 ± 1.2 | CC1=CCC2(CC1O)C(C)CC(O)C2C(C)CO (centres unmarked) [Compound 4, Bilaiaeacorenol D] | > 100 | 
0.5 ± 1.2 | C=C(C)C1C(O)CC(C)C12CCC(C(=O)O)C(O)C2 (centres unmarked) [Compound 18, Bilaiaeacorenol R] | > 100 | reduction against NO production ([1]; LPS-induced BV-2 cells, dose-dependent manner): efficient reduction; p65 level in the nucleus (NF-κB p65): significantly downregulated; COX-2 level (protein) (COX-2 [3]): decreased; iNOS mRNA level (iNOS [4]): marked reductions; COX-2 mRNA level (COX-2 [5]): marked reductions; phosphorylation of JNK, ERK and p38 [6]: slightly affected; also recorded: Ineffective; iNOS level (protein) (iNOS [7]): decreased
> 10 | C=C(C)C1C(O)CC(C)C12CC(O)C(C)=CC2O (centres unmarked) [Compound 8, Bilaiaeacorenol H] | > 100 | 
8.7 ± 2.1 | C=C(C)C1C(O)CC(C)C12C=CC(C)(O)C(O)C2 (centres unmarked) [Compound 11, Bilaiaeacorenol K] | > 100 | 
> 10 | C=C(C)C1C(O)CC(C)C12CC=C(C)C(O)C2 (centres unmarked) [Compound 5, Bilaiaeacorenol E] | > 100 | 
0.53 ± 0.47 | C=C(C)C1C(OC(C)=O)CC(C)C12CCC(CO)C(O)C2 (centres unmarked) [Compound 13, Bilaiaeacorenol M] | > 100 | 
